Results: patent US20110092367A1, “Herbicidal Compositions Comprising 4-amino-3,6-dichloropyridine-2-carboxylic Acid” (BASF SE, priority 2008, published 2011)

Legend:
[1] = tested on: Matricaria inodora; experiment: Field trial Example 2, combined application: MATIN; format: in vivo; settings: Aminopyralid 7.5 g ai/ha solo
Experimental: (§1) Aminiopyralid was used as commercial aquaeous solution having an active ingredient concentration of 240 g/l (Milestone™). Metazachlor was used as a commercial suspension concentrate having an active ingredient concentration of 500 g/l (Butisan S®).
(§2) The evaluation for the damage on undesired weeds caused by the chemical compositions was carried out using a scale from 0 to 100%, compared to the untreated control plants. Here, 0 means no damage and 100 means complete destruction of the plants.
The value E, which is to be expected if the activity of the individual compounds is just additive, was calculated using the method of S. R. Colby (1967) “Calculating synergistic and antagonistic responses of herbicide combinations”, Weeds 15, p. 22 ff.
The performance of aminopyralid, applied as an alone treatment at […] and 15 g ai/ha, and the performance of metazachlor, applied as an alone treatment at 375 and 500 g ai/ha, as well as the mixtures of the both compounds have been assessed in winter oilseed rape field trials. The trials have been conducted in Germany at two locations.
Post emergence treatment was applied by means of fine distributed nozzels at the growth stage (GS/BBCH 11/12).

[2] = tested on: Stellaria media; experiment: Field trial Example 1, successive application: damage on STEME; format: in vivo
Excerpt: as §1
The performance of aminopyralid applied as an alone treatment at 15, 30 and 50 g a.i./ha applied as an early post emergence treatment and an post emergence treatment in comparison to two different applications including metazachlor at 500 g a.i./ha as an early post emergence application in succession of aminopyralid as a post emergence application at 15 and 30 g a.i./ha was assessed in an oilseed rape field trials.
The early post emergence treatment was applied by means of fine distributed nozzles at the growth stage (GS) of the crop BBCH 11-12.
The post emergence treatment was applied by means of fine distributed nozzles at the growth stage (GS) of the crop BBCH 13-14.
The test period extended over the autumn and spring season (205 days).
In the following experiments, the herbicidal activity for the individual herbicide compounds (solo application) and of the herbicidal succession was assessed 4 times:
as §2

## Nc1cc(Cl)nc(C(=O)O)c1Cl [aminopyralid, 4-amino-3,6-dichloropyridine-2-carboxylic acid]
[1]; 28 DAT
  % activity: 78%
[1]; 29 DAT
  % activity: 87%
[2]; 15 g ai/ha, treatment A early post emergence, DAT 25/DALT 10
  damage on STEME: 32%
[2]; 15 g ai/ha, treatment A early post emergence, DAT 65/DALT 50
  damage on STEME: 52%
[2]; 15 g ai/ha, treatment A early post emergence, DAT 176/DALT 161
  damage on STEME: 93%
[2]; 15 g ai/ha, treatment B post emergence, DAT 25/DALT 10
  damage on STEME: 12%
[2]; 15 g ai/ha, treatment B post emergence, DAT 65/DALT 50
  damage on STEME: 50%
[2]; 15 g ai/ha, treatment B post emergence, DAT 176/DALT 161
  damage on STEME: 77%
[2]; 30 g ai/ha, treatment A early post emergence, DAT 25/DALT 10
  damage on STEME: 90%
[2]; 30 g ai/ha, treatment A early post emergence, DAT 65/DALT 50
  damage on STEME: 97%
[2]; 30 g ai/ha, treatment A early post emergence, DAT 176/DALT 161
  damage on STEME: 98%
[2]; 30 g ai/ha, treatment B post emergence, DAT 25/DALT 10
  damage on STEME: 38%
[2]; 30 g ai/ha, treatment B post emergence, DAT 65/DALT 50
  damage on STEME: 68%
[2]; 30 g ai/ha, treatment B post emergence, DAT 176/DALT 161
  damage on STEME: 95%
[2]; 50 g ai/ha, treatment A early post emergence, DAT 25/DALT 10
  damage on STEME: 100%
[2]; 50 g ai/ha, treatment A early post emergence, DAT 65/DALT 50
  damage on STEME: 100%
[2]; 50 g ai/ha, treatment A early post emergence, DAT 176/DALT 161
  damage on STEME: 100%
[2]; 50 g ai/ha, treatment B post emergence, DAT 25/DALT 10
  damage on STEME: 67%
[2]; 50 g ai/ha, treatment B post emergence, DAT 65/DALT 50
  damage on STEME: 88%
[2]; 50 g ai/ha, treatment B post emergence, DAT 176/DALT 161
  damage on STEME: 95%
[2]; aminopyralid 15 g ai/ha, treatment A, DAT 205/DALT 190
  damage on STEME: 93%
[2]; aminopyralid 15 g ai/ha, treatment B, DAT 205/DALT 190
  damage on STEME: 78%
[2]; aminopyralid 30 g ai/ha, treatment A, DAT 205/DALT 190
  damage on STEME: 100%
[2]; aminopyralid 30 g ai/ha, treatment B, DAT 205/DALT 190
  damage on STEME: 98%
[2]; aminopyralid 50 g ai/ha, treatment A, DAT 205/DALT 190
  damage on STEME: 100%
[2]; aminopyralid 50 g ai/ha, treatment B, DAT 205/DALT 190
  damage on STEME: 97%
